From patent publication US20250241878A1, “TYROSINE AND RESVERATROL DERIVATIVES AS NOVEL MODULATORS OF CELLULAR SERINE ADP-RIBOSYLATION” (UNIVERSITY OF SOUTH CAROLINA, priority 2022, published 2025)

Key:
[1] = system: AcK56-H3 and AcK16-H4; assay: Histone acetylation immunoblot (AcK56-H3, AcK16-H4); assay type: cell-based, rat; design: dose or concentration left out as unconfirmed
[2] = system: monosomes; assay: Monosome formation in cortical neurons; assay type: cell-based, rat; conditions: compound alone
[3] = system: association of raptor with Rab7a; assay: Raptor / Rab7a immunoprecipitation; assay type: cell-based, rat
Text: FIG. 19C presents cis-RSV-mediated recruitment of raptor to Rab7a-coated late endosomes.

[4] = system: rat cortical neurons; assay: MTT cell viability assay; design: effect on neurotoxicity induced by etoposide (ETO) / effect on neurotoxicity induced by oxidative stress (H2O2) / effect on neurotoxicity induced by mitochondrial inhibition (MPP+) / neurotoxicity (viability): dose or concentration left out as unconfirmed; conditions: for effect on D-Tyr mediated neurotoxicity: combination with D-Tyr
Method: Rat cortical neurons (DIV9-11) were exposed to different treatments (NMDA, ETO, H2O2, MPP+) after seeding 20,000 cells/well in 96-well plates. Cell viability was then assessed at 48 hr after the initial exposure to NMDA. 3-[4,5-dimethylthiazole-2-yl]-2,5-diphenyltetrazolium bromide (MTT) assays were used to assess change in cell viability. […] Cultured rat cortical neurons were incubated with MTT (0.5 mg/mL). In the MTT assay, after 2 hr incubation, the insoluble purple product formazan resulting from the reduction of MTT by NAD (P) H-dependent oxidoreductases present in cells with viable mitochondria was solubilized in dimethyl sulfoxide at room temperature, under agitation, and protected from light. The percentage of MTT reduced as measured by the difference between the absorbances at 570 nm read in a spectrophotometer (SpectraMax® 190R Molecular Devices, UK).

[5] = system: global protein synthesis; assay: Puromycin incorporation assay; assay type: cell-based, rat; conditions: compound alone
Method: Cultured neurons (DIV 9-10) were washed once with cold 1×PBS and lysed in cell lysis buffer (20 mM Tris-HCl (pH 7.5), 150 mM NaCl, 1 mM Na2EDTA, 1 mM EGTA, 1% Triton™, 2.5 mM sodium pyrophosphate, 1 mM beta-glycerophosphate, 1 mM Na3VO4, 1 μg/ml leupeptin supplemented with protease inhibitor). The lysates were centrifuged at 10,000 RPM for 15 mins at 4° C. to separate the chromatin-bound and soluble fractions. Lysates were quantified using Bio-Rad™ Protein Assay and equal amounts of protein were loaded onto a 4 to 12% gradient gel (Invitrogen™ NuPAGE™). Protein was transferred from the gel to 0.2 μm NC membranes at 25 V for 10 mins using transfer stacks (iBlot™ 2-Invitrogen™) and blocked with 5% non-fat milk in TBST (10 mM Tris-HCl pH 8.0, 150 mM NaCl, 0.01% Tween-20) for 1 hr before application of primary antibodies. Primary and secondary antibodies were incubated overnight at 4° C. and for 1 hr at room temperature, respectively. Immobilon® ECL Ultra Western HRP Substrate (WBULS0500, Millipore™) and a luminescent image analyzer (ChemiDoc™ Imaging System, Bio-Rad™) were used to detect proteins. Quantification of western blots was done using ImageJ (Version 1.53c).

[6] = system: PARP1; assay: Auto-PARylation of PARP1 immunoblot; assay type: cell-based, rat
[7] = system: AcK56-H3; conditions: humans, 500 mg/day dosing; cited from earlier work
[8] = system: cortical neurons; assay: Neurite degeneration (MAP2 staining); assay type: cell-based, rat; conditions: agent alone
Method: The neurite degeneration index was calculated. Samples were imaged using ImageXpress® Micro 4 at a magnification of 10× to capture the entire field of interest. The samples analyzed for neurite degeneration were stained using the standard immunofluorescence procedure with MAP2 (Alexa Fluor® 647) for neurites and DAPI staining for the nucleus. Neurite degeneration was quantified using 5-6 regions of interest of equal sizes from each treatment condition. The analysis of neurite degeneration was done using ImageJ. The fluorescent images for MAP2 staining were binarized, so that pixel intensity of regions corresponding to neurite staining was converted to black, and all other regions were converted to white. Healthy intact neurites show a continuous tract, whereas degenerated axons have a particulate structure due to fragmentation or beading. To detect degenerated neurites, the particle analyzer module of ImageJ was used. The percentage of the area of the small fragments or particles (size=3-10 μm^2) to the intact neurites (size >25 μm^2) with information derived from the binary images was calculated. A degeneration index (DI) was calculated as the fragmented neurite area ratio over the intact neurite area.

[9] = higher concentrations of trans-RSV (≥25 mM)

Compound	AcK16-H4 acetylation ([1]; cis-RSV)	monosome formation [2]	association of raptor with Rab7a [3]	effect on neurotoxicity induced by etoposide (ETO) [4]	effect on neurotoxicity induced by mitochondrial inhibition (MPP+) [4]	effect on neurotoxicity induced by oxidative stress (H2O2) [4]	effect on NMDA-mediated toxicity ([4]; cis-RSV)	effect on D-Tyr mediated neurotoxicity [4]	effect on trans-RSV-mediated neurotoxicity ([4]; combination with trans-RSV)	global protein synthesis (puromycin incorporation) [5]	auto-PARylation of PARP1 [6, 9]	auto-PARylation of PARP1 ([6]; low concentration of trans-RSV, converted to cis-RSV in solution)	AcK16-H4 acetylation ([1]; trans-RSV)	AcK56-H3 acetylation ([1]; trans-RSV)	acetylation of H3 at lysine 56 (AcK56-H3) [7]	neurotoxicity (viability) [4]	effect on NMDA mediated neurotoxicity [4, 9]	effect on NMDA mediated neurotoxicity ([4]; low concentrations of trans-RSV (≤10 mM))	neurite degeneration [8]
Oc1ccc(/C=C\c2cc(O)cc(O)c2)cc1 [cis-RSV, cis-resveratrol]	increased the acetylation of H4 lysine 16	stimulate the formation of monosomes	increases the association of raptor with Rab7a	suppressed the neurotoxicity	suppressed the neurotoxicity	suppressed the neurotoxicity	protected against NMDA-mediated toxicity in a concentration-dependent manner	protected against D-Tyr mediated neurotoxicity	protected against the neurotoxicity induced by trans-RSV in a dose-dependent manner										
Oc1ccc(/C=C/c2cc(O)cc(O)c2)cc1 [trans-RSV, trans-resveratrol]				did not protect against these neurotoxic agents	did not protect against these neurotoxic agents	did not protect against these neurotoxic agents		protected against D-Tyr mediated neurotoxicity but not trans-RSV		inhibited global protein synthesis	inhibit the auto-PARylation of PARP1	stimulates the auto-PARylation of PARP1	inhibited H3 and H4 acetylation at lysines 56 and 16	inhibited H3 and H4 acetylation at lysines 56 and 16	inhibited the acetylation of H3 at lysine 56	by itself was neurotoxic	exacerbated the toxicity	evoked protective effects	
N[C@@H](Cc1ccc(O)cc1)C(=O)O [tyrosine, L-tyrosine]																			did not induce neurite degeneration
